Measured values as given in PubChem BioAssay (NCI).
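Values below derive from 48-hour exposures of cells grown in 96-well plates, with endpoints linearly interpolated between the two concentrations bracketing the appropriate inhibition level. At the TGI there is no net growth.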

What was measured:
Assay in all cases: growth of human tumour cells (NCI), 48 h
[1] = tested on: A549 NSCLC
[2] = tested on: BT-549 breast
[3] = tested on: HCC-2998 colon
[4] = tested on: HCT-116 colon
[5] = tested on: HS 578T breast
[6] = tested on: KM12 colon
[7] = tested on: MDA-N
[8] = tested on: MOLT-4 leukemia
[9] = tested on: NCI-H226 lung
[10] = tested on: NCI-H23 lung
[11] = tested on: NCI/ADR-RES ovarian
[12] = tested on: PC-3 prostate
[13] = tested on: RPMI-8226 leukemia
[14] = tested on: SF-539 CNS
[15] = tested on: SK-MEL-2 melanoma
[16] = tested on: SK-MEL-28 melanoma
[17] = tested on: SK-MEL-5 melanoma
[18] = tested on: SN12C renal
[19] = tested on: SNB-19 CNS
[20] = tested on: SR leukemia

## CC(C)=CCC[C@@H](C)C1=C(O)C(O)C(C)=C2N=C(c3ccccc3)C(=O)OC21 (stereo partly drawn)
[1]
  TGI: > 23 µM
[2]
  TGI: > 25 µM
[3]
  TGI: 21.2 µM
[4]
  TGI: > 8.46 µM
[5]
  TGI: 13.4 µM
[6]
  TGI: > 18.3 µM
[7]
  TGI: > 25 µM
[8]
  TGI: > 19.3 µM
[9]
  TGI: 6.94 µM
[10]
  TGI: 6.15 µM
[11]
  TGI: 3.13 µM
[12]
  TGI: > 25 µM
[13]
  TGI: > 7.03 µM
[14]
  TGI: 13.8 µM
[15]
  TGI: 6.75 µM
[16]
  TGI: > 25 µM
[17]
  TGI: 6.32 µM
[18]
  TGI: > 25 µM
[19]
  TGI: > 25 µM
[20]
  TGI: > 20.5 µM

## O=C(c1ccccc1)c1ccc2nc3n(c2c1)C(c1c(F)cccc1F)SC3 (stereo not drawn)
[1]
  TGI: > 84.8 µM
[2]
  TGI: > 100 µM
[3]
  TGI: > 52.5 µM
[4]
  TGI: 13.5 µM
[5]
  TGI: > 81 µM
[6]
  TGI: 14.3 µM
[7]
  TGI: 3.43 µM
[8]
  TGI: 27.6 µM
[9]
  TGI: > 79.2 µM
[10]
  TGI: > 61.7 µM
[11]
  TGI: 26.5 µM
[12]
  TGI: > 80.7 µM
[13]
  TGI: > 100 µM
[14]
  TGI: > 47.8 µM
[15]
  TGI: 31.2 µM
[16]
  TGI: > 70.5 µM
[17]
  TGI: 18.1 µM
[18]
  TGI: 34.8 µM
[19]
  TGI: > 100 µM
[20]
  TGI: 9.4 µM

## CO[C@H]1c2cccc3cccc(c23)[C@@H]1n1[nH]c(=O)n(C(C)(C)C)c1=O
[1]
  TGI: > 100 µM
[2]
  TGI: > 100 µM
[3]
  TGI: > 100 µM
[4]
  TGI: > 100 µM
[5]
  TGI: > 100 µM
[6]
  TGI: > 100 µM
[7]
  TGI: > 100 µM
[8]
  TGI: > 100 µM
[9]
  TGI: > 100 µM
[10]
  TGI: > 100 µM
[11]
  TGI: > 100 µM
[12]
  TGI: > 100 µM
[13]
  TGI: > 100 µM
[14]
  TGI: > 100 µM
[15]
  TGI: > 100 µM
[16]
  TGI: > 100 µM
[18]
  TGI: > 100 µM
[19]
  TGI: > 100 µM
[20]
  TGI: > 100 µM

## COc1cc(/C=C(\C#N)c2nc3ccccc3o2)ccc1O
[1]
  TGI: 43.4 µM
[2]
  TGI: 34.5 µM
[3]
  TGI: 41.9 µM
[4]
  TGI: 34.3 µM
[5]
  TGI: 75.2 µM
[6]
  TGI: 37.7 µM
[7]
  TGI: > 100 µM
[8]
  TGI: > 100 µM
[9]
  TGI: 49 µM
[10]
  TGI: 70 µM
[11]
  TGI: 64.3 µM
[12]
  TGI: 66.4 µM
[13]
  TGI: 63.6 µM
[14]
  TGI: 28.5 µM
[15]
  TGI: 47.3 µM
[16]
  TGI: 58.1 µM
[17]
  TGI: 36.3 µM
[18]
  TGI: > 100 µM
[19]
  TGI: > 100 µM
[20]
  TGI: > 100 µM

## O=C1NC(=O)C(Cc2ccccc2)(c2cccnc2)N1 (stereo not drawn)
[1]
  TGI: > 100 µM
[2]
  TGI: > 100 µM
[3]
  TGI: > 100 µM
[4]
  TGI: > 100 µM
[5]
  TGI: > 100 µM
[6]
  TGI: > 100 µM
[7]
  TGI: > 100 µM
[8]
  TGI: > 100 µM
[9]
  TGI: > 100 µM
[10]
  TGI: > 100 µM
[11]
  TGI: > 100 µM
[12]
  TGI: > 100 µM
[13]
  TGI: > 100 µM
[14]
  TGI: > 100 µM
[15]
  TGI: > 100 µM
[16]
  TGI: > 100 µM
[17]
  TGI: > 100 µM
[18]
  TGI: > 100 µM
[19]
  TGI: > 100 µM
[20]
  TGI: > 100 µM

## CN1CCC2(CC1)SC[C@H]1C(=O)N(c3ccc(Cl)cc3)C(=O)N12
[1]
  TGI: > 100 µM
[2]
  TGI: > 100 µM
[3]
  TGI: > 100 µM
[4]
  TGI: > 100 µM
[5]
  TGI: > 100 µM
[6]
  TGI: > 100 µM
[7]
  TGI: > 100 µM
[8]
  TGI: > 100 µM
[9]
  TGI: > 100 µM
[10]
  TGI: > 100 µM
[11]
  TGI: > 100 µM
[12]
  TGI: > 100 µM
[13]
  TGI: > 100 µM
[14]
  TGI: > 100 µM
[15]
  TGI: > 100 µM
[16]
  TGI: > 100 µM
[17]
  TGI: > 100 µM
[18]
  TGI: > 100 µM
[19]
  TGI: > 100 µM
[20]
  TGI: > 100 µM

## O=C1CC(NC(=O)C(F)(F)F)c2c1csc2Br (stereo not drawn)
[1]
  TGI: > 100 µM
[2]
  TGI: > 100 µM
[3]
  TGI: > 100 µM
[4]
  TGI: > 100 µM
[5]
  TGI: > 100 µM
[6]
  TGI: > 100 µM
[7]
  TGI: > 100 µM
[8]
  TGI: > 100 µM
[9]
  TGI: > 100 µM
[10]
  TGI: > 100 µM
[11]
  TGI: > 100 µM
[12]
  TGI: > 100 µM
[13]
  TGI: > 100 µM
[14]
  TGI: > 100 µM
[15]
  TGI: > 100 µM
[16]
  TGI: > 100 µM
[17]
  TGI: > 100 µM
[18]
  TGI: > 100 µM
[19]
  TGI: > 100 µM
[20]
  TGI: > 100 µM

## CCOC(=O)C1=CN/C(=C(/C)C(=O)OC)SC1C(=O)OCC (stereo not drawn)
[1]
  TGI: > 100 µM
[2]
  TGI: > 100 µM
[3]
  TGI: > 100 µM
[4]
  TGI: > 100 µM
[5]
  TGI: > 100 µM
[6]
  TGI: > 100 µM
[7]
  TGI: > 100 µM
[8]
  TGI: > 100 µM
[9]
  TGI: > 100 µM
[10]
  TGI: > 100 µM
[11]
  TGI: > 100 µM
[12]
  TGI: > 100 µM
[13]
  TGI: > 100 µM
[14]
  TGI: > 100 µM
[15]
  TGI: > 100 µM
[16]
  TGI: > 100 µM
[17]
  TGI: > 100 µM
[18]
  TGI: > 100 µM
[19]
  TGI: > 100 µM
[20]
  TGI: > 100 µM

## CNc1c2cccc(C)c2nc2c(C(=O)NCCN(C)C)cccc12
[1]
  TGI: 0.331 µM
[2]
  TGI: 2.8 µM
[3]
  TGI: 0.192 µM
[4]
  TGI: 0.453 µM
[5]
  TGI: 0.497 µM
[6]
  TGI: 1.67 µM
[7]
  TGI: 0.328 µM
[8]
  TGI: 0.306 µM
[9]
  TGI: 0.847 µM
[10]
  TGI: 0.286 µM
[11]
  TGI: 1.83 µM
[12]
  TGI: 0.88 µM
[13]
  TGI: 0.57 µM
[14]
  TGI: 0.245 µM
[15]
  TGI: 0.996 µM
[16]
  TGI: 1.17 µM
[17]
  TGI: 0.593 µM
[18]
  TGI: 0.719 µM
[19]
  TGI: 0.876 µM
[20]
  TGI: 0.469 µM

## O=C(N/N=C/c1ccc2c(c1)OCO2)Nc1ccccc1Cl
[1]
  TGI: > 100 µM
[2]
  TGI: 75.7 µM
[3]
  TGI: 5.14 µM
[4]
  TGI: > 100 µM
[5]
  TGI: 8.25 µM
[6]
  TGI: > 100 µM
[7]
  TGI: 0.501 µM
[8]
  TGI: > 100 µM
[9]
  TGI: > 73.5 µM
[10]
  TGI: > 43.8 µM
[11]
  TGI: 2.4 µM
[12]
  TGI: > 100 µM
[13]
  TGI: > 56.2 µM
[14]
  TGI: 24.8 µM
[15]
  TGI: 25.2 µM
[16]
  TGI: > 100 µM
[17]
  TGI: 15.3 µM
[18]
  TGI: > 46.7 µM
[19]
  TGI: > 79.3 µM
[20]
  TGI: > 34.2 µM

## CN(C)c1ccc(/C=N\NC(=O)c2ccccc2Nc2ccccc2C(=O)N/N=C/c2ccc(N(C)C)cc2)cc1
[1]
  TGI: > 100 µM
[2]
  TGI: > 100 µM
[3]
  TGI: > 100 µM
[4]
  TGI: > 100 µM
[5]
  TGI: > 100 µM
[6]
  TGI: > 100 µM
[7]
  TGI: > 100 µM
[8]
  TGI: > 100 µM
[9]
  TGI: > 100 µM
[10]
  TGI: > 100 µM
[11]
  TGI: > 100 µM
[12]
  TGI: > 100 µM
[13]
  TGI: > 100 µM
[14]
  TGI: 81.9 µM
[15]
  TGI: > 100 µM
[16]
  TGI: > 100 µM
[17]
  TGI: > 100 µM
[18]
  TGI: > 100 µM
[19]
  TGI: > 100 µM
[20]
  TGI: > 100 µM

## Cc1oc2c(c1C)S(=O)(=O)C(C#N)=C(c1ccccc1)N2
[1]
  TGI: > 100 µM
[2]
  TGI: > 100 µM
[3]
  TGI: > 100 µM
[5]
  TGI: > 100 µM
[6]
  TGI: > 100 µM
[7]
  TGI: > 100 µM
[8]
  TGI: > 100 µM
[9]
  TGI: > 100 µM
[10]
  TGI: > 100 µM
[11]
  TGI: > 100 µM
[12]
  TGI: > 100 µM
[13]
  TGI: > 100 µM
[14]
  TGI: > 100 µM
[15]
  TGI: > 100 µM
[16]
  TGI: > 100 µM
[17]
  TGI: > 100 µM
[18]
  TGI: > 100 µM
[19]
  TGI: > 100 µM
[20]
  TGI: > 100 µM
